Reference: patent US20210122730A1, “GLUCOCORTICOID RECEPTOR MODULATORS” (ORIC Pharmaceuticals, Inc., priority 2017, published 2021)
pIC50: −log10 of the molar value.

What was measured:
PR = target: T1, PR (Homo sapiens, UniProt P06401); experiment: In Vitro PR Luciferase Reporter Assay (antagonist mode, CHO-K1-PR-MMTV-Luc reporter cells); assay type: cell-based; conditions: antagonist assay with 20 nM Progesterone, 18-24 hours, read-out: PR antagonism IC50
T1 construct: expressed in transfected cells; host or cells: CHO-K1
T1 sequence (P06401 1-933): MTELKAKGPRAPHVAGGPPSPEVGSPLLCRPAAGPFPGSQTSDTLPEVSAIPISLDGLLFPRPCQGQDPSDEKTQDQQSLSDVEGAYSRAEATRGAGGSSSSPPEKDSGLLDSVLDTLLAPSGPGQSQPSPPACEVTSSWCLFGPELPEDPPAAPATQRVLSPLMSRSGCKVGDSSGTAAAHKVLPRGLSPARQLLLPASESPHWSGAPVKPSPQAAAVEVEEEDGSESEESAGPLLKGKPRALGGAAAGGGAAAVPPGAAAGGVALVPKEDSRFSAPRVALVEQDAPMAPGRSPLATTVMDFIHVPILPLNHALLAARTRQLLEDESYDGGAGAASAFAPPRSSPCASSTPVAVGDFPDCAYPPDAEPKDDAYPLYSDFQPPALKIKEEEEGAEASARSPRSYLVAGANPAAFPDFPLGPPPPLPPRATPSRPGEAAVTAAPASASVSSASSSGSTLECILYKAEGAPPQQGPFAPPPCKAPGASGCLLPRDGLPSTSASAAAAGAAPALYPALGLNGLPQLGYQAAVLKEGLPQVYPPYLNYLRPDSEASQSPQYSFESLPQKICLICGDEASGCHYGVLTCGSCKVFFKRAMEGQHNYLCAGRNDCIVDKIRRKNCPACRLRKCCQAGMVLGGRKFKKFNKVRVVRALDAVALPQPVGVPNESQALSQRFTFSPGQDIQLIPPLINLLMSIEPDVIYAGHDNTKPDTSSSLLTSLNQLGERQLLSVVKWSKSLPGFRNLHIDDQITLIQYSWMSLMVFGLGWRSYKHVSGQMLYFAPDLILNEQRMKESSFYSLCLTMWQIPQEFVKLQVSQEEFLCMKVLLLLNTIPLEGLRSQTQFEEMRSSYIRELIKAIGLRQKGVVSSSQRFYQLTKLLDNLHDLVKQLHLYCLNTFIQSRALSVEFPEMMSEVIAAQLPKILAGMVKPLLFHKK
From the text: Example C: In Vitro PR Luciferase Reporter Assay
Cell Line: CHO-KI-PR-MMTV-Luc reporter cells
Culture Media: DMEM (with phenol red)+1000FBS
Assay Media: DMEM (without phenol red)+1000CSS
Culture CHO-Kl-PR-MMTV-Luc reporter cells in 15 cm plates in Culture Media at conditions less than 90% confluence.
Prepared 200×DMSO 1:8 serial dilutions of control and test compounds in 96-well non-sterile V bottom plate in DMSO, 8 serial dilutions for each compound.
Prepared 5× Assay Media diluted compound serial dilutions in 96-well non-sterile V bottom plate: Add 97.5 μL/well of Assay Media into 96-well then add 2.5 μl of 200× concentration of compounds and mix well.
Added compounds: 5 μl of assay media diluted compounds were added to appropriate wells and followed a quick spin (1000 rpm, 10 sec) to bring media and cells to the bottom of plate. The plates were covered with SealMate film to avoid evaporation and placed in 37° C. incubator for approximately 18-24 hours.
Read plates: Equilibrated appropriate amount of Promega One-Glo luciferase reagent to room temperature. Removed the plates from incubator and added 25 μL of One-Glo luciferase reagent/well by multiple channel pipette and read the plates with Tecan F500 luminometer within 3 minutes.
The ability of exemplary compounds disclosed herein to inhibit PR activity was quantified and the respective IC50 value was determined. Table 4 provides the cellular IC50 values of exemplary compounds disclosed herein.

GR = target: T2, GR (Homo sapiens, UniProt P04150); experiment: In Vitro GR Luciferase Reporter Assay (antagonist mode, CHO-K1-GR-MMTV-Luc reporter cells); assay type: cell-based
T2 construct: expressed in transfected cells; host or cells: CHO-K1
T2 sequence (P04150 1-777): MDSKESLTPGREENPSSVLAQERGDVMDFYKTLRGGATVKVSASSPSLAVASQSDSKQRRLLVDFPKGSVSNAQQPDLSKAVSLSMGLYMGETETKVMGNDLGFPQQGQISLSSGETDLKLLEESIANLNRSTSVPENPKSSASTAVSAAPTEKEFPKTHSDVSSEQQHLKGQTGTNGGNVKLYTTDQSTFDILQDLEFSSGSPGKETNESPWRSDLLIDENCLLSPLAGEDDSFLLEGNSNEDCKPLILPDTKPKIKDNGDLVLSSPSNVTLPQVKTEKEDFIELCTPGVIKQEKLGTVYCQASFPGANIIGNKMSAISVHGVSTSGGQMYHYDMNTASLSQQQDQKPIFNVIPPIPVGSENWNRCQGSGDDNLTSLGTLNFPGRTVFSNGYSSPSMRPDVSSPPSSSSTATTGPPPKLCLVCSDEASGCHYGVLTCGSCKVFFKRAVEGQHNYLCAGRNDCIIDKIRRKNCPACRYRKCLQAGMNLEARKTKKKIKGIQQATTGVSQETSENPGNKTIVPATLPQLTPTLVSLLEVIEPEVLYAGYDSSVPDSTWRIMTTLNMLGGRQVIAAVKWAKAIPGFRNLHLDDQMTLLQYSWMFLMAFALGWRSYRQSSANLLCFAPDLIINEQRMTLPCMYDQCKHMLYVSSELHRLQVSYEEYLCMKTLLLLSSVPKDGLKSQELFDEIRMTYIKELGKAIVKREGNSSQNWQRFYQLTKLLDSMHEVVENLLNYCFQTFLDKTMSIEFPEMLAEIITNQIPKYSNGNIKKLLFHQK
In short: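 Antagonist mode: compounds (8 serial 1:5 dilutions) added to GR-MMTV-luciferase CHO-K1 reporter cells co-exposed to 10 nM dexamethasone final, in phenol red-free DMEM plus 10% CSS. After roughly 18-24 h at 37° C, OneGlo luminescence read and IC50 calculated.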

[1] = antagonist mode, 10 nM Dexamethasone
[2] = antagonist assay with 10 nM Dexamethasone, 18-24 hours

| Compound | pIC50 (PR) | pIC50 (GR; [1]) | pIC50 (GR; [2]) |
| --- | --- | --- | --- |
| CC(C)N([C@H]1CCC2=Cc3c(cnn3-c3ccc(F)cc3)C[C@]2(C(=O)c2cc(C(F)(F)F)ccn2)C1)S(=O)(=O)c1ccn(C)n1 [Example 186, N-((4aS,6S)-1-(4-fluorophenyl)-4a-(4-(trifluoromethyl)picolinoyl)-4,4a,5,6,7,8-hexahydro-1H-benzo[f]indazol-6-yl)-N-isopropyl-1-methyl-1H-pyrazole-3-sulfonamide] | < 5.30 | ≥ 7.00 |  |
| Cn1cnc(S(=O)(=O)N(C2CC2)[C@H]2CCC3=Cc4c(cnn4-c4ccc(F)cc4)C[C@]3(C(=O)c3cc(C(F)(F)F)ccn3)C2)n1 [Example 306, N-cyclopropyl-N-((4aS,6S)-1-(4-fluorophenyl)-4a-(4-(trifluoromethyl)picolinoyl)-4,4a,5,6,7,8-hexahydro-1H-benzo[f]indazol-6-yl)-1-methyl-1H-1,2,4-triazole-3-sulfonamide] | < 5.30 | ≥ 7.00 |  |
| Cn1cc(S(=O)(=O)C[C@H]2CCC3=Cc4c(cnn4-c4ccc(F)cc4)C[C@]3(C(=O)c3cc(C(F)(F)F)ccn3)C2)cn1 (single isomer, unassigned) [Example 118] | < 5.30 | ≥ 7.00 |  |
| CC(C)N(C(=O)c1cnn(C)c1)[C@H]1CCC2=Cc3c(cnn3-c3ccc(F)cc3)C[C@]2(C(=O)c2ncc(C(F)(F)F)s2)C1 [Example 211, N-((4aS,6S)-1-(4-fluorophenyl)-4a-(5-(trifluoromethyl)thiazole-2-carbonyl)-4,4a,5,6,7,8-hexahydro-1H-benzo[f]indazol-6-yl)-N-isopropyl-1-methyl-1H-pyrazole-4-carboxamide] | < 5.30 | ≥ 7.00 |  |
| Cn1cc(S(=O)(=O)N(CC2CC2)[C@H]2CCC3=Cc4c(cnn4-c4ccc(F)cc4)C[C@]3(C(=O)c3cc(C(F)(F)F)ccn3)C2)cn1 [Example 103, N-(cyclopropylmethyl)-N-((4aS,6S)-1-(4-fluorophenyl)-4a-(4-(trifluoromethyl)picolinoyl)-4,4a,5,6,7,8-hexahydro-1H-benzo[f]indazol-6-yl)-1-methyl-1H-pyrazole-4-sulfonamide] | < 5.30 |  | ≥ 7.00 |
| CN([C@H]1CCC2=Cc3c(cnn3-c3ccc(F)cc3)C[C@]2(C(=O)c2cc(C(F)(F)F)ccn2)C1)S(=O)(=O)c1ccn(C)n1 [Example 98, N-((4aS,6S)-1-(4-fluorophenyl)-4a-(4-(trifluoromethyl)picolinoyl)-4,4a,5,6,7,8-hexahydro-1H-benzo[f]indazol-6-yl)-N,1-dimethyl-1H-pyrazole-3-sulfonamide] | 5.46 |  | ≥ 7.00 |

Next, values leading:

| pIC50 (PR) | pIC50 (GR; [1]) | pIC50 (GR; [2]) | Compound |
| --- | --- | --- | --- |
| < 5.30 | ≥ 7.00 |  | Cn1ccc(S(=O)(=O)N(CC2CC2)[C@H]2CCC3=Cc4c(cnn4-c4ccc(F)cc4)C[C@]3(C(=O)c3ncc(C(F)(F)F)s3)C2)n1 [Example 179, N-(cyclopropylmethyl)-N-((4aS,6S)-1-(4-fluorophenyl)-4a-(5-(trifluoromethyl)thiazole-2-carbonyl)-4,4a,5,6,7,8-hexahydro-1H-benzo[f]indazol-6-yl)-1-methyl-1H-pyrazole-3-sulfonamide] |
| < 5.30 | ≥ 7.00 |  | Cn1ccc(S(=O)(=O)N(C2CC2)[C@H]2CCC3=Cc4c(cnn4-c4ccc(F)cc4)C[C@]3(C(=O)c3cc(C(F)(F)F)ccn3)C2)n1 [Example 138, N-cyclopropyl-N-((4aS,6S)-1-(4-fluorophenyl)-4a-(4-(trifluoromethyl)picolinoyl)-4,4a,5,6,7,8-hexahydro-1H-benzo[f]indazol-6-yl)-1-methyl-1H-pyrazole-3-sulfonamide] |
| < 5.30 | ≥ 7.00 |  | Cn1cnc(S(=O)(=O)N(C2CC2)[C@H]2CCC3=Cc4c(cnn4-c4ccc(F)cc4)C[C@]3(C(=O)c3ncc(C(F)(F)F)s3)C2)n1 [Example 305, N-cyclopropyl-N-((4aS,6S)-1-(4-fluorophenyl)-4a-(5-(trifluoromethyl)thiazole-2-carbonyl)-4,4a,5,6,7,8-hexahydro-1H-benzo[f]indazol-6-yl)-1-methyl-1H-1,2,4-triazole-3-sulfonamide] |
| < 5.30 | ≥ 7.00 |  | Cn1ccc(S(=O)(=O)N(C2CC(F)(F)C2)[C@H]2CCC3=Cc4c(cnn4-c4ccc(F)cc4)C[C@]3(C(=O)c3cc(C(F)(F)F)ccn3)C2)n1 [Example 227, N-(3,3-difluorocyclobutyl)-N-((4aS,6S)-1-(4-fluorophenyl)-4a-(4-(trifluoromethyl)picolinoyl)-4,4a,5,6,7,8-hexahydro-1H-benzo[f]indazol-6-yl)-1-methyl-1H-pyrazole-3-sulfonamide] |
| < 5.30 | ≥ 7.00 |  | Cn1ccc(S(=O)(=O)N([C@H]2CCC3=Cc4c(cnn4-c4ccc(F)cc4)C[C@]3(C(=O)c3ncc(C(F)(F)F)s3)C2)[C@H]2C[C@@](C)(O)C2)n1 [Example 277, N-((4aS,6S)-1-(4-fluorophenyl)-4a-(5-(trifluoromethyl)thiazole-2-carbonyl)-4,4a,5,6,7,8-hexahydro-1H-benzo[f]indazol-6-yl)-N-((1s,3R)-3-hydroxy-3-methylcyclobutyl)-1-methyl-1H-pyrazole-3-sulfonamide] |
| < 5.30 | ≥ 7.00 |  | O=C(c1ncc(C(F)(F)F)s1)[C@]12Cc3cnn(-c4ccc(F)cc4)c3C=C1CC[C@H](N(C1CC1)S(=O)(=O)c1ccc(F)cc1)C2 [Example 177, N-cyclopropyl-4-fluoro-N-((4aS,6S)-1-(4-fluorophenyl)-4a-(5-(trifluoromethyl)thiazole-2-carbonyl)-4,4a,5,6,7,8-hexahydro-1H-benzo[f]indazol-6-yl)benzenesulfonamide] |
| 5.44 | ≥ 7.00 |  | Cn1ccc(S(=O)(=O)N(C2CC(F)(F)C2)[C@H]2CCC3=Cc4c(cnn4-c4ccc(F)cc4)C[C@]3(C(=O)c3ncc(C(F)(F)F)s3)C2)n1 [Example 270, N-(3,3-difluorocyclobutyl)-N-((4aS,6S)-1-(4-fluorophenyl)-4a-(5-(trifluoromethyl)thiazole-2-carbonyl)-4,4a,5,6,7,8-hexahydro-1H-benzo[f]indazol-6-yl)-1-methyl-1H-pyrazole-3-sulfonamide] |
